According to patent publication US20230174530A1, “N-(PHENYLAMINOCARBONYL) TETRAHYDRO-ISOQUINOLINES AND RELATED COMPOUNDS AS MODULATORS OF GPR65” (PATHIOS THERAPEUTICS LIMITED, priority 2020, published 2023):

Molecular target: T1, human recombinant GPR65 (Homo sapiens, UniProt Q8IYL9)
T1 construct: host or cells: 1321N1 human astrocytoma cells (1321N1-hrGPR65)
Assay: Human GPR65 cAMP HTRF antagonist assay
Type: cell-based
Settings: 1321N1-hrGPR65 cells stimulated at assay pH 7.2; suppression of cAMP rise; read-out: hGPR65 IC50
Procedure: Human GPR65 Cyclic Adenosine Monophosphate (cAMP) Homogeneous Time Resolved Fluorescence (HTRF) Antagonist Assay Procedure
IC50 data was obtained by the following procedure:
1321N1 human astrocytoma cells stably expressing human recombinant GPR65 (1321N1-hrGPR65 cells, EuroscreenFast) were cultured according to the vendor's instructions.
Compounds were tested for their ability to antagonise GPR65, through measuring the concentration of cytoplasmic cAMP following treatment of the cells at a pH of 7.2 to activate GPR65 signalling and addition of the compound to be tested. The extent to which the expected rise in cAMP concentration upon GPR65 activation was suppressed by the added compound is indicative of its potency. The assay was carried out according to EuroscreenFast assay methodology as follows.
On the day of the assay, test compounds were added to 384-well, low volume, white microtiter plates by acoustic dispensing. KRH buffer (5 mM KCl, 1.25 mM MgSO4, 124 mM NaCl, 25 mM HEPES, 13.3 mM Glucose, 1.25 mM KH2PO4 and 1.45 mM CaCl2) was adjusted to pH 6.5, pH 7.6 and pH 8.4 by adding NaOH. 1321N1-hGPR65 cells were rapidly thawed and diluted in KRH, pH 7.6 prior to centrifugation at 300×g for 5 min and resuspension in assay buffer (KRH, pH 7.6, supplemented with 1 mM 3-isobutyl-1-methylxanthine (IBMX) and 200 μM ethylenediaminetetraacetic acid (EDTA)). Cells were added to assay plates at a density of 2,000 cells per well in a volume of 5 μl. Assay plates were briefly centrifuged at 100×g and then incubated at room temperature for 30 min. Cells were stimulated by the addition of 5 μL KRH, pH 6.5, to achieve an assay pH of 7.2, while control wells received 5 μl KRH, pH 8.4 to achieve an assay pH of 7.9. Assay plates were briefly centrifuged at 100×g and then incubated at room temperature for 30 min.
Accumulation of cAMP was detected by cAMP HTRF kit (Cisbio). d2-labeled cAMP and cryptate-labeled anti-cAMP antibody in Lysis and Detection Buffer (Cisbio) were added to assay plates, and the plates were incubated at room temperature for 1 h. HTRF measurements were performed using a Pherastar FSX instrument. Acceptor and donor emission signals were measured at 665 nm and 620 nm, respectively, and HTRF ratios were calculated as signal665 nm/signal620 nm×10^4. Data were normalised to high and low control values and fitted with 4-parameter logistic regression to determine hGPR65 IC50 values for the test compounds, which are shown in Table 1.

T1 sequence (Q8IYL9 whole entry): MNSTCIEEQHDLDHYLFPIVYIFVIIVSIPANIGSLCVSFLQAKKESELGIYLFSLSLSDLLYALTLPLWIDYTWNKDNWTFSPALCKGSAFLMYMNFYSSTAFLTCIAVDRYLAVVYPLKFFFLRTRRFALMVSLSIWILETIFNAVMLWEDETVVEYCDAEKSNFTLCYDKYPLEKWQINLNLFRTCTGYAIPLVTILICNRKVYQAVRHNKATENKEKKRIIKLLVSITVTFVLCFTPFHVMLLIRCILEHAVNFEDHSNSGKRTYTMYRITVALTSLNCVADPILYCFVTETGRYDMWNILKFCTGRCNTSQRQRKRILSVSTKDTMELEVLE

IC50 | Compound
< 500 nM | O=C(Nc1ccc(Cl)c(Cl)c1)N1CCc2c(ccnc2F)C1 [Compound 120, N-(3,4-Dichlorophenyl)-5-fluoro-3,4-dihydro-2,6-naphthyridine-2(1H)-carboxamide]
500 to 5000 nM | O=C(Nc1ccc(Cl)c(Cl)c1)N1CCc2ncncc2C1 [Compound 1, N-(3,4-Dichlorophenyl)-7,8-dihydropyrido[4,3-d]pyrimidine-6(5H)-carboxamide]
500 to 5000 nM | O=C(Nc1ccc(Cl)c(C(F)(F)F)c1)N1CCc2oncc2C1 [Compound 25, N-(4-Chloro-3-(trifluoromethyl)phenyl)-6,7-dihydroisoxazolo[4,5-c]pyridine-5(4H)-carboxamide]
< 500 nM | O=C(Nc1ccc(Cl)c(Cl)c1)N1CCc2cc3nncn3cc2C1 [Compound 109, N-(3,4-Dichlorophenyl)-8,9-dihydro-[1,2,4]triazolo[4,3-b][2,7]naphthyridine-7(6H)-carboxamide]
500 to 5000 nM | COc1ccc2c(c1)CCN(C(=O)Nc1ccc(C(F)(F)F)c(Cl)c1)C2 [Compound 67, N-(3-Chloro-4-(trifluoromethyl)phenyl)-6-methoxy-3,4-dihydroisoquinoline-2(1H)-carboxamide]
500 to 5000 nM | COC(=O)c1cc2c(cn1)CN(C(=O)Nc1ccc(C(F)(F)F)c(Cl)c1)CC2 [Compound 129, Methyl 7-((3-chloro-4-(trifluoromethyl)phenyl)carbamoyl)-5,6,7,8-tetrahydro-2,7-naphthyridine-3-carboxylate]
< 500 nM | O=C(Nc1ccc(Cl)c(C(F)(F)F)c1)N1CCc2cc(F)ccc2C1 [Compound 43, N-(4-Chloro-3-(trifluoromethyl)phenyl)-6-fluoro-3,4-dihydroisoquinoline-2(1H)-carboxamide]
< 500 nM | O=C(Nc1ccc(Cl)c(Cl)c1)N1CCc2cc(Cl)ccc2C1 [Compound 52, 6-Chloro-N-(3,4-dichlorophenyl)-3,4-dihydroisoquinoline-2(1H)-carboxamide]
< 500 nM | CC1c2ccc(F)cc2CCN1C(=O)Nc1ccc(Cl)c(Cl)c1 (stereo not shown) [Compound 93, N-(3,4-Dichlorophenyl)-6-fluoro-1-methyl-3,4-dihydroisoquinoline-2(1H)-carboxamide]
500 to 5000 nM | O=C(Nc1ccc(Cl)c(Cl)c1)N1CCc2cccc(F)c2C1 [Compound 45, N-(3,4-Dichlorophenyl)-8-fluoro-3,4-dihydroisoquinoline-2(1H)-carboxamide]
> 5000 nM | O=C(Nc1ccc(Cl)c(Cl)c1)N1CCc2cn3cnnc3cc2C1 [Compound 116, N-(3,4-Dichlorophenyl)-6,7-dihydro-[1,2,4]triazolo[4,3-b][2,6]naphthyridine-8(9H)-carboxamide]
< 500 nM | O=C(Nc1ccc(Cl)c(Cl)c1)N1CCc2cc(F)ccc2C1 [Compound 42, N-(3,4-Dichlorophenyl)-6-fluoro-3,4-dihydroisoquinoline-2(1H)-carboxamide]
> 5000 nM | O=C(Nc1ccc(C(F)(F)F)c(Cl)c1)N1CCc2cc(C(F)(F)F)ccc2C1 [Compound 72, N-(3-Chloro-4-(trifluoromethyl)phenyl)-6-(trifluoromethyl)-3,4-dihydroisoquinoline-2(1H)-carboxamide]
500 to 5000 nM | O=C(Nc1ccc(Cl)c(Cl)c1)N1CCc2ccc(Cl)cc2C1 [Compound 138, 7-Chloro-N-(3,4-dichlorophenyl)-3,4-dihydroisoquinoline-2(1H)-carboxamide]
< 500 nM | O=C(Nc1ccc(C(F)(F)F)c(Cl)c1)N1CCc2cc(=O)[nH]cc2C1 [Compound 74, N-(3-Chloro-4-(trifluoromethyl)phenyl)-6-oxo-3,4,6,7-tetrahydro-2,7-naphthyridine-2(1H)-carboxamide]
500 to 5000 nM | O=C(Nc1ccc(C(F)(F)F)c(Cl)c1)N1CCc2cnc(F)cc2C1 [Compound 87, N-(3-Chloro-4-(trifluoromethyl)phenyl)-7-fluoro-3,4-dihydro-2,6-naphthyridine-2(1H)-carboxamide]
< 500 nM | O=C(Nc1ccc(C(F)(F)F)c(Cl)c1)N1CCc2c[n+]([O-])ccc2C1 [Compound 79, 6-((3-Chloro-4-(trifluoromethyl)phenyl)carbamoyl)-5,6,7,8-tetrahydro-2,6-naphthyridine 2-oxide]

IC50 | Compound
< 500 nM | Nc1cc2c(cn1)CCN(C(=O)Nc1ccc(Cl)c(Cl)c1)C2 [Compound 82, 7-Amino-N-(3,4-dichlorophenyl)-3,4-dihydro-2,6-naphthyridine-2(1H)-carboxamide]
> 5000 nM | O=C(Nc1ccc(Cl)c(C(F)(F)F)c1)N1CCc2c(Cl)cccc2C1 [Compound 56, 5-Chloro-N-(4-chloro-3-(trifluoromethyl)phenyl)-3,4-dihydroisoquinoline-2(1H)-carboxamide]
> 5000 nM | O=C(Nc1ccc(Cl)c(Cl)c1)N1CCc2nccnc2C1 [Compound 23, N-(3,4-Dichlorophenyl)-7,8-dihydropyrido[3,4-b]pyrazine-6(5H)-carboxamide]
500 to 5000 nM | O=C(Nc1ccc(Cl)c(C(F)(F)F)c1)N1CCc2ccc(F)cc2C1 [Compound 32, N-(4-Chloro-3-(trifluoromethyl)phenyl)-7-fluoro-3,4-dihydroisoquinoline-2(1H)-carboxamide]
500 to 5000 nM | N#Cc1cccc2c1CCN(C(=O)Nc1ccc(Cl)c(C(F)(F)F)c1)C2 [Compound 137, N-(4-Chloro-3-(trifluoromethyl)phenyl)-5-cyano-3,4-dihydroisoquinoline-2(1H)-carboxamide]
500 to 5000 nM | Cc1cccc2c1CCN(C(=O)Nc1ccc(C(F)(F)F)c(Cl)c1)C2 [Compound 60, N-(3-Chloro-4-(trifluoromethyl)phenyl)-5-methyl-3,4-dihydroisoquinoline-2(1H)-carboxamide]
500 to 5000 nM | COc1ccc2c(c1)CN(C(=O)Nc1ccc(C(F)(F)F)c(Cl)c1)CC2 [Compound 63, N-(3-Chloro-4-(trifluoromethyl)phenyl)-7-methoxy-3,4-dihydroisoquinoline-2(1H)-carboxamide]
> 5000 nM | O=C(Nc1ccc(Cl)c(Cl)c1)N1CCc2cc(-c3ccsc3)ccc2C1 [Compound 128, N-(3,4-Dichlorophenyl)-6-(thiophen-3-yl)-3,4-dihydroisoquinoline-2(1H)-carboxamide]
< 500 nM | O=C(Nc1ccc(Cl)c(Cl)c1)N1CCc2ccc(F)cc2C1 [Compound 31, N-(3,4-Dichlorophenyl)-7-fluoro-3,4-dihydroisoquinoline-2(1H)-carboxamide]
> 5000 nM | O=C(Nc1ccc(Cl)c(Cl)c1)N1CCc2cc3nccn3cc2C1 [Compound 110, N-(3,4-Dichlorophenyl)-8,9-dihydroimidazo[1,2-b][2,7]naphthyridine-7(6H)-carboxamide]
500 to 5000 nM | O=C(Nc1ccc(C(F)(F)F)c(Cl)c1)N1CCc2ccncc2C1 [Compound 17, N-(3-Chloro-4-(trifluoromethyl)phenyl)-3,4-dihydro-2,7-naphthyridine-2(1H)-carboxamide]
500 to 5000 nM | O=C(Nc1ccc(Cl)c(C(F)(F)F)c1)N1CCc2ccccc2C1 [Compound 11, N-(4-Chloro-3-(trifluoromethyl)phenyl)-3,4-dihydroisoquinoline-2(1H)-carboxamide]
> 5000 nM | COc1ccc2c(c1)CN(C(=O)Nc1ccc(Cl)c(C(F)(F)F)c1)CC2 [Compound 62, N-(4-Chloro-3-(trifluoromethyl)phenyl)-7-methoxy-3,4-dihydroisoquinoline-2(1H)-carboxamide]
500 to 5000 nM | N#Cc1ccc2c(c1)CN(C(=O)Nc1ccc(Cl)c(Cl)c1)CC2 [Compound 49, 7-Cyano-N-(3,4-dichlorophenyl)-3,4-dihydroisoquinoline-2(1H)-carboxamide]
500 to 5000 nM | O=C(Nc1ccc(C(F)(F)F)c(Cl)c1)N1CCc2ccc(C(F)(F)F)cc2C1 [Compound 71, N-(3-Chloro-4-(trifluoromethyl)phenyl)-7-(trifluoromethyl)-3,4-dihydroisoquinoline-2(1H)-carboxamide]
500 to 5000 nM | Cc1ccc2c(c1)CCN(C(=O)Nc1ccc(C(F)(F)F)c(Cl)c1)C2 [Compound 136, N-(3-Chloro-4-(trifluoromethyl)phenyl)-6-methyl-3,4-dihydroisoquinoline-2(1H)-carboxamide]
500 to 5000 nM | O=C(Nc1ccc(Cl)c(Cl)c1)N1CCc2[nH]c(=O)ncc2C1 [Compound 88, N-(3,4-Dichlorophenyl)-2-oxo-1,5,7,8-tetrahydropyrido[4,3-d]pyrimidine-6(2H)-carboxamide]
